System: Zein protein
Assay: Harshness of surfactant by dye release from solid Zein protein-Coomassie Blue R dye complex (CIE L*a*b colour change)
Design: species or system corn
Settings: 10 wt % surfactant dilution; disc of protein-dye complex soaked 15 minutes; decrease in b* between first and second colour measurement; lower b = harsher; three replicates
Method: Zein powder (10 wt %) and Coomassie Blue R dye (0.1%) were added to a glass jar, and made up to 100 wt % with 90:10 aqueous ethanol (90 ethanol: 10 water). The mixture was left to disperse with stirring for 12 hours to produce protein-dye complex solution.
2 g of the protein-dye complex solution was added to four petri dishes and dried overnight under ambient conditions. The dried discs of protein-dye complex were then removed from the petri dishes and stored until required.
Dilutions (10 wt %) of four surfactants were prepared and a first colour measurement of each dilution was taken using CIEL*a*b on a Konica Minolta spectrometer.
A disc of protein-dye complex was added to each surfactant dilution, and soaked for 15 minutes. A second colour measurement was obtained of the resulting solutions. The decrease in b* value between the first and second colour measurement indicated the increase in blue colour. The lower the b value the ‘bluer’ the sample and the harsher the formulation. Three samples from each surfactant solution were measured as replicates.

| SMILES | Average Δb* |
| --- | --- |
| CCCCCCCCCCCCOS(=O)(=O)[O-].[Na+] [SDS] | −49.465 |
| CCCCCCCCCCO[C@@H]1O[C@H](CO)[C@@H](O)[C@H](O)[C@H]1O [Decyl Glucoside] | −11.2625 |
